Test results: PMC8128204, “Development of 3-methyl/3-(morpholinomethyl)benzofuran derivatives as novel antitumor agents towards non-small cell lung cancer cells” (Journal of Enzyme Inhibition and Medicinal Chemistry, 2021)
≈ marks a conversion by molar mass, not a printed value. Like-named read-outs stand apart in the source and are kept apart here.

How the values were obtained:
A549 cells [1] = assay: Annexin V-FITC/PI apoptosis assay, A549; type: cell-based, human; settings: A549, at IC50 concentration; control 1.37%
Experimental: The apoptotic effect of the three benzofurans (4b, 15a and 16a) was evaluated using Annexin VFITC/PI (AV/PI) dual staining assay to validate if their observed cytotoxic effect is due to non-specific necrosis or physiological apoptosis. […] Moreover, the apoptotic effects of 3-(morpholinomethyl)benzofuran derivatives 15a and 16a were evaluated in NCI-H23 cancer cell line.
(§1) Lung cancer A549 cells were treated with benzofuran 4b, whereas NCI-H23 cells were treated […]
(§2) twice with ice-cold phosphate buffered saline (PBS). Subsequently, the treated cells were collected by centrifugation, fixed in ice-cold 70% (v/v) ethanol, washed with PBS, re-suspended with 100 μg/mL RNase, stained with 40 μg/mL PI, and analyzed by flow cytometry using FACS Calibur (Becton Dickinson, BD, Franklin Lakes, NJ, USA). The cell cycle distributions were calculated using CellQuest software 5.1 (Becton Dickinson).
3. Annexin V-FITC Apoptosis Assay […]
Cells were then rinsed in binding buffer and resuspended in 150 μL of binding buffer with the addition of 1 μL of DAPI (1 μg/μL in PBS). Cells were then analyzed using the flow cytometer BD FACS Canto II and the results were interpreted with FlowJo7.6.4 software (Tree Star, Ashland, 4. VEGFR-2 Kinase Inhibitory Activity […]

WI-38 cell line = assay: Cytotoxic activity against non-tumorigenic WI-38 cell line; type: cell-based, human
Description: Antiproliferative agents are designed to inhibit the cellular growth of tumour cells selectively, while sparing the normal cells.

VEGFR-2 = VEGFR-2 (Homo sapiens, UniProt P35968); assay: VEGFR-2 kinase inhibitory assay (VEGFR2(KDR) Kinase Assay Kit)
Description: CA, USA), according to the manufacturer’s instructions.

A549 cells [2] = assay: Cell cycle analysis (PI flow cytometry), A549; type: cell-based, human; settings: A549, 24 h at IC50 concentration
Experimental: as §1
as §2, with “Dickinson). […]” for “Dickinson).”

[3] = tested on: M. tuberculosis ATCC 27294; assay: Microplate Alamar Blue Assay, anti-tubercular activity; type: cell-based; settings: MABA, 7 days
NCI-H23 cells = assay: MTT anti-proliferative assay, NCI-H23; type: cell-based, human; settings: Homo sapiens, NCI-H23, 48 h, mean ± SD of three experiments
Experimental: (§3) The antiproliferative activity of the synthesised derivatives of the 3-methylbenzofuran series (4a–d, 6a–c, 8a–c and 11) and the 3-(morpholinomethyl)benzofuran series (15a–c, 16a–b, 17a–b and 18) was evaluated against non-small cell lung carcinoma (NSCLC) A549 and NCI-H23 cell lines, following the procedures of the MTT assay. […] 1. Anti-proliferative action toward human […] cell lines […]
(§4) The two examined human non-small cell lung carcinoma cell lines (A549 and NCI-H23) have been obtained from American Type Culture Collection (ATCC). The cells were maintained in Dulbecco's modified Eagle's medium (DMEM) supplemented with 10% heat inactivated fetal calf serum (GIBCO), penicillin (100 U/ml) and streptomycin (100 µg/ml) at 37 °C in humidified atmosphere containing 5% CO2. […]
(§5) flask in 5 ml of culture medium. The anti-proliferative activity of the tested 3-methylbenzofurans (4a-d, 6a-c, 8a-c and 11) and 3-(morpholinomethyl)benzofurans (15a-c, 16a-b, 17a-b and 18) measured in vitro using the MTT assay. Briefly, cells were plated out in 96-well microtiter plate (0.5X10^4 cells/well) and incubated for 24 h before treatment with the tested benzofurans to allow cells to attach to the bottom of the well of the plate. Tested benzofuranswere were dissolved in DMSO at 1 mg/ml immediately before use and diluted to the appropriate volume just before addition to the cell culture. […]
(§6) added to the cells (three wells were prepared for each individual dose). Cells were incubated with […]
(§7) At the end of exposure, MTT […]
(§8) solution in PBS (5 mg/ml) was then added to all well including no cell blank and left to incubate for 90 min. The formation of formazan crystals were visually confirmed using phase contract microscopy. DMSO (100 µl/well) was added to dissolve the formazan crystals with shaking for 10 min after which the absorbance was read at 590 nm against no cell blanks on a microplate reader.
(§9) The relation between percent of surviving fraction and log drug concentration is plotted to get the survival curve for each cell line.

A549 cells [4] = assay: MTT anti-proliferative assay, A549; type: cell-based, human; settings: Homo sapiens, A549, 48 h, mean ± SD of three experiments
Experimental: as §3, §4, §5, §6, §7, §8, §9

Chain of VEGFR-2 (P35968 20-1356): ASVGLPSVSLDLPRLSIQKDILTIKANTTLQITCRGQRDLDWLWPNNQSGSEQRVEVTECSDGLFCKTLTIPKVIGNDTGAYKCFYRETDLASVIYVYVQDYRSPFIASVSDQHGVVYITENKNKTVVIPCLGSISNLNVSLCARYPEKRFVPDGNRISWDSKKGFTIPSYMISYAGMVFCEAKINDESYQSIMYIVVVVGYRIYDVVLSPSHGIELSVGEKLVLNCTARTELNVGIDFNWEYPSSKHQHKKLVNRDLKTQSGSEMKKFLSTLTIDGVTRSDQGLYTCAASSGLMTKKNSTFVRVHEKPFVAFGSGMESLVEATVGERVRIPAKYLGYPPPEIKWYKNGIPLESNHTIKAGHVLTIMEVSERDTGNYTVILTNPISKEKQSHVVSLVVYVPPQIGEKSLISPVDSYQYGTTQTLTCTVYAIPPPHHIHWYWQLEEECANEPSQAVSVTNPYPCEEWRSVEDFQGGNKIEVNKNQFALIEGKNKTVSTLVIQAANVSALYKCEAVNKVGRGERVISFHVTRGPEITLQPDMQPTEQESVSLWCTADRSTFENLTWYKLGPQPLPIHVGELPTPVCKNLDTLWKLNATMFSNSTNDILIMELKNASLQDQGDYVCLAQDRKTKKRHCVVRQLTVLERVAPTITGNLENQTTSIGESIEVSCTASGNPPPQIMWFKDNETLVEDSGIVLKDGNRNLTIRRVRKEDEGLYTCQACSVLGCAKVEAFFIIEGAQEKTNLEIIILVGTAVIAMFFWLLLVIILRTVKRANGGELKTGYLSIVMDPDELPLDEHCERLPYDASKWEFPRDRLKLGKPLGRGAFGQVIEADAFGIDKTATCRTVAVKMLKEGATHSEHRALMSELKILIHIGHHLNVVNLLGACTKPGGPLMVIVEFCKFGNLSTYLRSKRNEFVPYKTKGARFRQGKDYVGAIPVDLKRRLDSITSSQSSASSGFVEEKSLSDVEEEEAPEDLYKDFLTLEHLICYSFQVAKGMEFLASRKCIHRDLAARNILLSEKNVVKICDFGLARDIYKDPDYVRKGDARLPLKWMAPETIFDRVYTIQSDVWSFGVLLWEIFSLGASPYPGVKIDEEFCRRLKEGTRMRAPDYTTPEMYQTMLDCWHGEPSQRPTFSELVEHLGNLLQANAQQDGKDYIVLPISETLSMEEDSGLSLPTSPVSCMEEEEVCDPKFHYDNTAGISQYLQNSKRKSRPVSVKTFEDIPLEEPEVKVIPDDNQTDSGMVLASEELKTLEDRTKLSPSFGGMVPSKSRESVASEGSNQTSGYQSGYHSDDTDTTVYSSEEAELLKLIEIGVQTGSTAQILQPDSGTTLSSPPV

COc1ccc(NC(=S)NNC(=O)c2oc3ccccc3c2C)cc1 [Compound 4b, N-(4-Methoxyphenyl)-2-(3-methylbenzofuran-2-carbonyl)hydrazine-1-carbothioamide]
apoptosis (total) (A549 cells [1]): 42.05% | Mean tumour selectivity (WI-38 cell line; S.I. WI-38/A549 and NCI-H23): 5.3 | IC50 (WI-38 cell line; non-tumorigenic human lung WI-38 cell line): 19.5 ± 1.18 µM | IC50 (VEGFR-2): 78 ± 4.6 nM | S phase, fold vs control (A549 cells [2]; attenuated): 0.46 fold | G2/M phase cell population, fold vs control (A549 cells [2]; augmentation): 2.67 fold | sub-G1 phase cell population, fold vs control (A549 cells [2]; augmentation): 21.76 fold | G0–G1 phase, fold vs control (A549 cells [2]; reduced): 0.67 fold | melting point: 190 to 193 °C | MIC [3]: 500 µg/mL (≈ 1410 µM) | MIC ([3]; Mycobacterium tuberculosis, ATCC27294, 168 h, read-out: MIC): 250 µg/mL (≈ 703 µM) | IC50 (NCI-H23 cells): 5.9 ± 0.29 µM | IC50 (A549 cells [4]): 1480 ± 80 nM
